US4992421A, “Luteinizing hormone releasing hormone antagonist” (priority 1988, dated 1991)

Tests used:
[1] = biological target: T1, LHRH receptors (rat pituitary membranes) (Rattus norvegicus, UniProt P30969); assay: LHRH radioligand receptor binding assay; conditions: radioiodinated [D-Leu6-des Gly10]-LHRH ethyl amide 50 pM, 2 hours at 4° C., read-out: LHRH RECEPTOR BINDING AFFINITY KI
T1 construct: Pituitary membranes containing LHRH receptors are prepared in batches from quick-frozen rat pituitaries; tissue Hilltop Labs; host or cells: rat pituitary membranes
T1 sequence (P30969 1-327): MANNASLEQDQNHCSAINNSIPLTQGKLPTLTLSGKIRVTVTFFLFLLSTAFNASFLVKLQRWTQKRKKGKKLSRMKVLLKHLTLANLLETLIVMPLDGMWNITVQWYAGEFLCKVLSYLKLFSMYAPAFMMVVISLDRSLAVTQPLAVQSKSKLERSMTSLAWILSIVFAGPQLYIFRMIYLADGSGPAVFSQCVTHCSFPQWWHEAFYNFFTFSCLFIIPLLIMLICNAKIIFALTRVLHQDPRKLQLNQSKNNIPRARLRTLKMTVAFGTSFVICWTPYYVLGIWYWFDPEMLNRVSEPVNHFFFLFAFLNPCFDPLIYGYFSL
Experimental: Receptor Binding. A radioligand receptor binding assay is performed in a similar way to that described in the literature (J. Marion et al., Mol. Pharmacol. 19 399 (1981)). [D-Leu^6 -des Gly^10 ]-LHRH ethyl amide was radioiodinated by the chloramine-T method and used as the radioligand. Pituitary membranes containing LHRH receptors are prepared in batches from quick-frozen rat pituitaries obtained from Hilltop Labs. The radioligand (50 pM), receptors, and compounds to be tested are coincubated for 2 hours at 4° C. Bound ligand is separated from free ligand via centrifugation and aspiration. Compounds are tested at six half-log concentration increments, and the equilibrium dissociation constant (KI) is calculated from the concentration which displaces 50% of specifically bound radioligand.

[2] = system: serum testosterone; conditions: given orally to patients, 200 to 1200 mg daily; cited from earlier work
[3] = in vivo; cited from earlier work

Compound | Ki [1] | suppression of serum testosterone [2] | bioavailable from the duodenum [3]
CC(=O)N1CCN(c2ccc(OCC3COC(Cn4ccnc4)(c4ccc(Cl)cc4Cl)O3)cc2)CC1 (stereo not drawn) [Ketoconazole] | 2 µM | dose dependent suppression of serum testosterone | –
CCNC(=O)[C@@H]1CCCN1C(=O)[C@H](CCCNC(=N)N)NC(=O)[C@H](CC(C)C)NC(=O)[C@@H](CC(C)C)NC(=O)[C@H](Cc1ccc(O)cc1)NC(=O)[C@H](CO)NC(=O)[C@H](Cc1c[nH]c2ccccc12)NC(=O)[C@H](Cc1c[nH]cn1)NC(=O)[C@@H]1CCC(=O)N1 [leuprolide] | – | – | less than 1%
